# Reference: patent US12600724B2, “Indole alkaloid and preparation method and use thereof” (NANJING UNIVERSITY OF CHINESE MEDICINE, priority 2022, dated 2026)
# How the values were obtained:
# [1] = tested on: STZ-induced type-1 diabetes model mice; experiment: Latent period of thermal pain, type-1 diabetic peripheral neuropathy mice; assay type: in vivo, C57BL/6J mice; details: type-1 mice, S26 46.8 mg/kg/day intragastric, Mean ± SD, n = 6
# Description: (§1) Type-1 diabetes mice: male 8-week-old C57BL/6J mice were purchased from Beijing Vital River Laboratory Animal Technology Co., Ltd. One week after adaptive feeding, STZ (150 mg/kg) was injected intraperitoneally, and one week later, tail vein blood collection was carried out for blood sugar detection, and the mice with random blood sugar greater than 16 mmol/L were selected. Six weeks after STZ injection, the mice were divided into a control group (non-diabetic mice), a model group (DPN mice) and a S26 administration group (46.8 mg/kg/day) respectively according to body weight and blood sugar, and administrated intragastrically for four weeks continuously. A response of an animal to infrared thermal stimulation was detected weekly by an infrared plantar pain threshold detector (37370, purchased from Ugo Basile Company) before and after administration to characterize a thermal pain sensitivity of the animal. A mouse was put into a single cage equipped for the machine in advance to adapt for 20 minutes, and then plantar thermal stimulation was carried out on the mouse. […] The thermal pain sensitivity was evaluated by comparing the thermal stimulation time.
# [2] = tested on: type-2 diabetes model db/db mice; experiment: Motor nerve conduction velocity, type-2 diabetes db/db mice; assay type: in vivo, BKS db/db mice; details: for Motor nerve conduction velocity: db/db mice, S26 46.8 mg/kg/day intragastric, Mean ± SD, n = 3
# Description: Type-2 diabetes mice: male 18-week-old BKS db/db mice were purchased from Jiangsu Gempharmatech Biotechnology Co., Ltd. One week after adaptive feeding, the mice were divided into a control group (db/m mice), a model group (db/db mice) and a S26 administration group (46.8 mg/kg/day) respectively according to body weight and blood sugar, and administrated intragastrically for four weeks continuously. Before administration, 2 weeks and 4 weeks after administration, motor nerve conduction velocities (MNCV) of left and right sides of each group of mice were detected, and a mean value of the velocities of two sides was taken as a nerve conduction velocity of each mouse. Specific experimental method: (1) electrode placement: a stimulating electrode was placed on a nerve trunk, a recording electrode was placed on a muscle belly, and a reference electrode was placed on a muscle tendon; and a ground electrode was placed between the stimulating electrode and the recording electrode. (2) Calculation of motor nerve conduction velocity: distal and proximal ends of the nerve trunk were stimulated in a super-strong manner, a compound muscle action potential could be recorded twice on a muscle innervated by the nerve, different latent periods of the compound muscle action potentials were measured, and a distance between the distal and proximal ends was divided by a difference between the two latent periods, so as to obtain the nerve conduction velocity. Computational formula: nerve conduction velocity (m/s)=distance between two ends (cm)×10/difference between two latent periods (ms).
# [3] = tested on: type-2 diabetes model db/db mice; experiment: 50% mechanical pain threshold (Von frey), type-2 diabetes db/db mice; assay type: in vivo, BKS db/db mice; details: S26 46.8 mg/kg/day intragastric, Mean ± SD, n = 6
# Description: Type-2 diabetes mice: male 18-week-old BKS db/db mice were purchased from Jiangsu Gempharmatech Biotechnology Co., Ltd. One week after adaptive feeding, the mice were divided into a control group (db/m mice), a model group (db/db mice) and a S26 administration group (46.8 mg/kg/day) respectively according to body weight and blood sugar, and administrated intragastrically for four weeks continuously. This experiment was based on a principle that claws of rodents would have a withdrawal reflex under mechanical stimulation. A Von frey tactile measuring set was purchased from Ugo Basile Company, and Von frey filaments could provide 0.008 g to 300 g of stimulating force, wherein a thickness of the filaments determined a magnitude of the stimulating force. Specific experimental method: filaments with proper thicknesses were selected to vertically stimulate a skin, and the stimulating force was adjusted by replacing the filaments, until the filaments were bent. One mouse was tested for 6 times to determine a threshold, and a 50% mechanical pain threshold of the mouse was calculated according to 50% threshold=(10^(Xf+k δ))/10000, which was detected weekly before and after administration respectively.
# [4] = tested on: type-2 diabetes model db/db mice; experiment: Latent period of thermal pain, type-2 diabetes db/db mice; assay type: in vivo, BKS db/db mice; details: S26 46.8 mg/kg/day intragastric, Mean ± SD, n = 6
# Description: as §1, with “Type-2” for “Type-1”, “18-week-old BKS db/db” for “8-week-old C57BL/6J”, “Jiangsu Gempharmatech Biotechnology” for “Beijing Vital River Laboratory Animal Technology”, “feeding,” for “feeding, STZ (150 mg/kg) was injected intraperitoneally, and one week later, tail vein blood collection was carried out for blood sugar detection, and the mice with random blood sugar greater than 16 mmol/L were selected. Six weeks after STZ injection,”, “(db/m” for “(non-diabetic”, “(db/db” for “(DPN”
# [5] = tested on: bleomycin-induced pulmonary fibrosis mouse; experiment: Bleomycin-induced pulmonary fibrosis mouse, Micro-CT volume of normal lung tissue; assay type: in vivo, C57BL/6J mice; details: for Volume of normal lung tissue: bleomycin 5 mg/kg model, S26 46.8 mg/kg intragastric, Mean ± SD, n = 4
# Excerpt: In this experiment, the pulmonary fibrosis model was established by oral tracheal instilling of a bleomycin solution into the mouse, and then the compound S26 was administrated for treatment. A volume of a normal lung tissue of the mouse was quantified by carrying out CT photographing and three-dimensional reconstruction on a lung of the mouse to evaluate the influence of the vinpocetine derivative S26 on the degree of the bleomycin-induced pulmonary fibrosis of the mouse. Male 8-week-old C57BL/6J mice were purchased from Beijing Weitong Lihua Experimental Animal Technology Co., Ltd. One week after adaptive feeding, a lung development condition of the mouse was examined by micro-CT. The mice were divided into a blank control group (normal mice), a model group and a S26 administration group (46.8 mg/kg) according to a volume of a normal lung tissue. Subsequently, an inhalation anesthesia machine was used to carry out isoflurane inhalation to induce anesthesia. The mice in the model group and the administration group were given 5 mg/kg bleomycin solution through oral tracheal instilling to establish the pulmonary fibrosis model, while the mice in the control group were given the same volume of bleomycin solvent. The mice were administrated on day 8 after the establishment of the model, and were intragastrically administrated for 20 days continuously. Micro-CT imaging was carried out before the establishment of the model and on day 8, day 18 and day 28 after the establishment of the model to observe pulmonary fibrosis of the mice.
smiles,measurement,setting,value
CC[C@@]12C=C(C(=O)NCC(=O)OCCOCCOCCOCCO)n3c4c(c5ccccc53)CCN(CCC1)[C@H]42 [Compound S26],Latent period of thermal pain,[1]; week 0 of administration,11.33 ± 0.67 ^ s
same,Latent period of thermal pain,[1]; week 1 of administration,8.19 ± 0.69 s
same,Latent period of thermal pain,[1]; week 2 of administration,6.97 ± 0.73 s
same,Latent period of thermal pain,[1]; week 3 of administration,6.16 ± 1.33 s
same,Latent period of thermal pain,[1]; week 4 of administration,6.38 ± 0.54 s
same,Motor nerve conduction velocity,[2]; week 0 of administration,20.45 ± 3.94^ m/s
same,Motor nerve conduction velocity,[2]; week 2 of administration,29.70 ± 4.27 m/s
same,Motor nerve conduction velocity,[2]; week 4 of administration,36.57 ± 3.34 m/s
same,Motor nerve conduction velocity and anesthesia symptom (in words),"[2]; type-2 diabetes mouse, Tables 5 to 7",obviously improve
same,50% mechanical pain threshold,[3]; week 0 of administration,1.33 ± 0.56^ g
same,50% mechanical pain threshold,[3]; week 1 of administration,1.04 ± 0.55^ g
same,50% mechanical pain threshold,[3]; week 2 of administration,0.91 ± 0.37 g
same,50% mechanical pain threshold,[3]; week 3 of administration,0.72 ± 0.39 g
same,50% mechanical pain threshold,[3]; week 4 of administration,0.71 ± 0.42 g
same,Latent period of thermal pain,[4]; week 0 of administration,15.55 ± 2.29 ^ s
same,Latent period of thermal pain,[4]; week 1 of administration,13.50 ± 2.05 ^ s
same,Latent period of thermal pain,[4]; week 2 of administration,12.00 ± 2.28 s
same,Latent period of thermal pain,[4]; week 3 of administration,8.62 ± 1.51 s
same,Latent period of thermal pain,[4]; week 4 of administration,7.65 ± 1.30 s
same,Volume of normal lung tissue,[5]; day 0 of administration (day 8 after model),328.98 ± 34.15^ mm^3
same,Volume of normal lung tissue,[5]; day 10 of administration (day 18 after model),486.71 ± 48.61^# mm^3
same,Volume of normal lung tissue,[5]; day 20 of administration (day 28 after model),536.70 ± 58.44^## mm^3
same,"Volume of the normal lung tissue (in words, FIG. 3)",[5]; pulmonary fibrosis model mouse,obviously increase
